The record followed here is BindingDB's records for doi:10.1021/np500581m (Institute of Microbial Chemistry (Bikaken), 2015).

pIC50: −log10 of the molar value.

The experiment in a line: Induction of p53-dependent growth suppression of human LNZTA3 cells after 72 hrs by MTT assay. (Tetrazolium assays rely on reduction of a dye to a coloured formazan, in cell work by metabolically active cells.)

The compound `CCCCC[C@H](O[C@@H]1O[C@@H]([C@H](O)CO)[C@H](O)[C@H]1O)c1c(O)cc2c(c1O)C(=O)c1c(O)cc(O)cc1C2=O` showed a pIC50 of 5.21. `CCCCC[C@H](O[C@@H]1O[C@@H]([C@H](O)CO)[C@H](O)[C@H]1OC(C)=O)c1c(O)cc2c(c1O)C(=O)c1c(O)cc(O)cc1C2=O` showed a pIC50 of 5.21.

The term pIC50 denotes −log10 of the IC50, conventionally taken in molar units.
